Experiments:
[1] = target: T1, GLP-1R (Homo sapiens, UniProt P43220); test: FACS binding assay, HEK293 cells over-expressing the GLP-1R; settings: 20 nM, 2 hours at 4° C., flow cytometry
T1 construct: expressed in transfected cells; host or cells: HEK293
Experimental: FACS Binding Assay. The activity of GLP-1 mimetibody was tested in an in vitro FACS binding assay. To determine whether the GLP-1 MMB binds the GLP-1R, HEK293 cells (1×10^6 cells) over-expressing the GLP-1R were incubated with GLP-1 MMB (20 nM) for 2 hours at 4° C. The cells were washed, and a fluorescently labeled secondary […] detection antibody (1 μg/mL goat anti-human IgG, Fc gamma specific) was added for 30 minutes at 4° C. The fluorescence intensity of the cells was monitored via flow cytometry.

[2] = tested on: control HEK293 cells; test: FACS binding assay, control HEK293 cells; settings: flow cytometry
[3] = target: T2, DPP-IV (Homo sapiens, UniProt P27487); test: DPP-IV cleavage assay; type: in vitro ADME; settings: 1.2 nM, DPP-IV 1 μg/mL, room temperature, 0-40 minutes
T2 construct: purchased R&D Systems
Experimental: DPP-IV cleavage assay. Since GLP-1 is rapidly inactivated by DPP-IV, an in vitro assay was established to quantitate intact (i.e. uncleaved) GLP-1 MMB. Briefly, GLP-1 MMB or peptide (1.2 nM) was incubated at room temperature with DPP-IV (1 μg/mL, R&D Systems). After various times (0, 5, 10, 15, 20, 30, 40 minutes), a DPP-IV inhibitor (100 μM, Linco) was added to quench the reaction. The amount of intact GLP-1 MMB or peptide was measured using the GLP-1 Active ELISA (Linco) and the GLP-1 MMB or peptides for the respective standard curves.

[4] = Human serum stability assay; type: in vitro ADME; settings: 30 nM, 37° C., GLP-1 Active ELISA
Experimental: Human Serum stability assay. The stability of the GLP-1 MMB in serum was also measured to ensure that other serum proteases were not able to cleave and inactivate the GLP-1 MMB. Briefly, GLP1 peptide or the GLP1 MMB (30 nM) was incubated in human serum at 37° C. After various times, the reactions were quenched with a DPP-IV inhibitor (100 μM, Linco), and the samples were analyzed using the GLP-1 Active ELISA from Linco.

[5] = tested on: diabetic db/db mice; test: Oral glucose tolerance test in diabetic db/db mice, single dose; type: in vivo; settings: subcutaneous 0.02 to 2 mg/kg, all doses tested, 1.0 mg/g glucose
Experimental: Effects of GLP-1 MMB during an oral glucose tolerance test in diabetic mice. Eight-week old diabetic db/db mice were fasted for 6 hours prior to a subcutaneous injection of the GLP-1 MMB (0.02 to 2 mg/kg). Following dosing, mice were fasted for an additional six hours and a baseline fasting blood glucose was measured. At t=0, mice were given an oral gavage of 1.0 mg/g glucose, and blood glucose was measured at various times.

[6] = tested on: diabetic db/db mice; test: Fasting blood glucose during chronic dosing to diabetic db/db mice; type: in vivo; settings: 1 mg/kg subcutaneously daily for six weeks
Experimental: Effects of GLP-1 MMB on fasting blood glucose during chronic dosing to diabetic mice. Ten-week old diabetic db/db mice were subcutaneously dosed daily with vehicle or GLP-1 MMB (1 mg/kg) for six weeks. Fasting blood glucose was measured twice per week during the course of the study.

[7] = tested on: diabetic db/db mice; test: Oral glucose tolerance test after chronic dosing to diabetic db/db mice; type: in vivo; settings: 1 mg/kg daily
Experimental: Effects of GLP-1 MMB on oral glucose tolerance test after chronic dosing to diabetic mice. As in Example 11, ten-week old diabetic db/db mice were dosed daily with vehicle or GLP-1 MMB (1 mg/kg) for six weeks. After 40 days of dosing, the mice were given an oral glucose tolerance test. Briefly, at t=0, mice were given an oral gavage of 1.0 mg/g glucose, and blood glucose was measured at various times.

[8] = tested on: diabetic db/db mice; test: HbA1c after chronic dosing to diabetic db/db mice; type: in vivo; settings: 1 mg/kg daily for six weeks
Experimental: Effects of GLP-1 MMB on reducing HbAlc after chronic dosing to diabetic mice. As in Examples 11 and 12, ten-week old diabetic db/db mice were dosed daily with vehicle or GLP-1 MMB (1 mg/kg) for six weeks. Before and after six-weeks of dosing, whole blood samples were taken and analyzed for percent HbA1c.

[9] = tested on: normal cynomolgus monkeys; test: Oral glucose tolerance test in normal cynomolgus monkeys; type: in vivo; settings: single dose 1 mg/kg
Experimental: Effects of GLP-1 MMB on an oral glucose tolerance test in normal cynomolgus monkeys. An oral glucose tolerance test (OGTT) was done in normal cynomolgus monkeys prior to and six days after a single dose of the GLP-1 MMB (1 mg/kg). Briefly, at t=0, monkeys were given an oral gavage of 2.0 mg/g glucose, and blood glucose was measured at various times.

[10] = tested on: diabetic mice (db/db); test: Insulin staining in islets of diabetic mice (db/db) after a single dose; type: in vivo; settings: single subcutaneous dose 1.5 mg/kg, four weeks later
Experimental: Effects of GLP-1 MMB on insulin staining in islets of diabetic mice (db/db) after a single dose. Twelve-week old diabetic mice (db/db) were treated with a single subcutaneous dose of the GLP-1 MMB (1.5 mg/kg), and the pancreata were harvested four weeks later. The pancreata were sectioned and stained for the presence of insulin.

[11] = tested on: normal dogs; test: Gastric emptying in normal dogs; type: in vivo, beagle dogs; settings: lidamidine 0.63 mg/kg subcutaneously 60 minutes before the meal, GLP-1 MMB 0.1 mg/kg intravenously 15 minutes before the meal
Experimental: GLP-1 MMB delays gastric emptying in normal dogs. A gastric cannula was surgically implanted into female beagle dogs (10-15 kg) under general anesthesia and allowed-to recover for at least 2 weeks. Dogs were fasted for 24 hours after which water was freely available. The gastric cannula was opened and gastric juice and food remnants were removed with 40-50 ml of lukewarm water. Groups of six dogs were dosed subcutaneously with lidamidine, an alpha2 agonist (0.63 mg/kg), 60 minutes before the meal, a positive control for delay of gastric emptying. Dogs dosed with the vehicle control or GLP-1 MMB (0.1 mg/kg) were dosed intravenously in the cephalic vein 15 minutes before the meal. Five minutes before the meal, the gastric cannula was opened to determine the amount of fluid present in stomach for baseline value and fluid was promptly reintroduced. […] Glucose concentrations were evaluated for collected samples and used to determine the absolute amount of glucose remaining in the stomach at each time point. The percentage of glucose retained in the stomach was determined from the starting value and the concentration of glucose at each time point and plotted as a function of time. The time at which 50% of the gastric contents were retained was determined by fitting of the curves to a single exponential.

[12] = tested on: diet induced obese mice; test: Oral glucose tolerance test in diet induced obese mice; type: in vivo
Experimental: GLP-1 MMB lowers blood glucose following an oral glucose tolerance test (OGTT) in diet induced obese mice. To develop a murine model of diet induced obesity, mice were maintained on a high fat diet for at least 27 weeks. Mice became obese and were determined to be diabetic when fasting blood glucose values exceeded 120 mg/dl. To evaluate the effect of GLP-1 MMB therapy on postprandial blood glucose levels, diet induced obese mice were fasted overnight and dosed subcutaneously with 0.02, 0.2, or 2 mg/kg GLP-1 MMB or vehicle control. Six hours after dosing, mice were given a 1.5 mg/g gastric gavage of glucose. Blood glucose levels were determined prior to MMB dosing, at t =0, 15, 30, 60, 90, 120, 150, and 180 minutes using tail vein blood.

[13] = tested on: db/db mice; test: Intraperitoneal glucose tolerance test (IPGTT) in db/db mice; type: in vivo
Experimental: GLP-1 MMB lowers blood glucose in an intraperitoneal glucose tolerance test (IPGTT) in db/db mice. Male db/db mice of approximately 13-15 weeks of age were randomized into treatment groups of six mice based on fasting blood glucose levels. Mice were dosed with either 0.02 mg/kg or 0.1 mg/kg of GLP- I MMB or 0.1 mg/kg of negative control MMB six hours prior to the glucose tolerance test. Five minutes before the glucose tolerance test, a glucose measurement was taken with a hand held glucometer from tail vein blood. Mice were then dosed intraperitoneally with 1 mg/g of D-glucose and blood glucose levels were monitored at 10 min,20 min,30 min, 60 min, 90 min, 120 min, 150 min, and 180 min. […] Additional groups of animals treated in the same manner were sacrificed for measurement of insulin levels at t=10 minutes.

[14] = tested on: patients with type 2 diabetes; settings: type 2 diabetic patients, cited from earlier work
[15] = administered subcutaneously; cited from earlier work
[16] = tested on: RINm cells; test: Insulin secretion in RINm cells (ELISA); type: cell-based; settings: peptides 0-5 nM, mimetibodies 5 or 50 nM
Experimental: GLP-1 MMB causes insulin secretion in RINm cells. To test the effect of GLP-1 MMB in insulin secretion, RINm cells were treated with increasing concentrations of GLP-1 (7-36) peptide (0-5 nM), exendin-4 peptide (0-5 nM), or various GLP-1 mimetibodies (5 or 50 nM) and the amount of insulin secreted was measured via ELISA. All GLP-1 MMBs tested had activities in stimulating insulin secretion in RINm cells (FIG. 6).

T1 sequence (P43220 24-463, species assumed): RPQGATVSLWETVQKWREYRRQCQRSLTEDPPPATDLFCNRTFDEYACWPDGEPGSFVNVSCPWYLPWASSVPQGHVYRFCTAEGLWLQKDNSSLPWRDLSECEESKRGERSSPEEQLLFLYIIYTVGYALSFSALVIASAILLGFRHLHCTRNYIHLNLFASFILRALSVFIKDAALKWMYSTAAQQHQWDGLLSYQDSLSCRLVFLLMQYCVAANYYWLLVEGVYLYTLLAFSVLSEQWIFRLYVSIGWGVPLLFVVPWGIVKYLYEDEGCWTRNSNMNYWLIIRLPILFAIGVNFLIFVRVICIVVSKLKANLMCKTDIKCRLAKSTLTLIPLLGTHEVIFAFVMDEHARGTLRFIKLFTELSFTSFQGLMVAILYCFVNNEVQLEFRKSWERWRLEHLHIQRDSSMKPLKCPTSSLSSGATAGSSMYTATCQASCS
T2 sequence (P27487 whole entry, species assumed): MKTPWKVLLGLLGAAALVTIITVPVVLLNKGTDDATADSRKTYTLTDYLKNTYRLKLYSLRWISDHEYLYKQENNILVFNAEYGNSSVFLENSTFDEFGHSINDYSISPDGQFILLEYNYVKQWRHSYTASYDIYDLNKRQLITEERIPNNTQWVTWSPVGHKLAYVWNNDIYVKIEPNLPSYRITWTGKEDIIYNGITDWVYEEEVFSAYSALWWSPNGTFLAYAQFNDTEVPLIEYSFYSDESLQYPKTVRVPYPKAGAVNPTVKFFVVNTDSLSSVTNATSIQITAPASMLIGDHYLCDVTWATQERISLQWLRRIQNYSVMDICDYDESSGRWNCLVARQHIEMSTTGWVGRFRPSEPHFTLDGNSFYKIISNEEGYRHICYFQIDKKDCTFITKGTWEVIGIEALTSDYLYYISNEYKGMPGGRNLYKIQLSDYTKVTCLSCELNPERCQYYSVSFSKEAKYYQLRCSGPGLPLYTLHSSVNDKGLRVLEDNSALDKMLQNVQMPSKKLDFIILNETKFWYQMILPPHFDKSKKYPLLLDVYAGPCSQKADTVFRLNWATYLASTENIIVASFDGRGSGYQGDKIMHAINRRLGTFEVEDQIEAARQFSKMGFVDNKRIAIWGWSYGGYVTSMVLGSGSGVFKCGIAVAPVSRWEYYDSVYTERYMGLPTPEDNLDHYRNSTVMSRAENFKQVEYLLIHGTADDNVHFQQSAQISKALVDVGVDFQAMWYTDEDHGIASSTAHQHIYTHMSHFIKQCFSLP

With “GLP-1 MMB: GLP-1 mimetibody construct (SEQ ID NO:2): GLP-1 peptide (7-36), flexible linker, J region, IgG1 hinge, CH2 and CH3” the “binding to HEK293 cells over-expressing the GLP-1R” value [1] was “binds”, the “binding to control HEK293 cells” value [2] was “does not bind” and the “resistance to cleavage by DPP-IV relative to the GLP-1 peptide” value [3] was “significantly more resistant”. The “stability in human serum” value [4] was “stable in human serum for 24 hours”, the “glucose excursion during an oral glucose tolerance test” value [5] was “effective in lowering the glucose excursion” and the “difference in fasting blood glucose, control vs treated, by six weeks” value [6] was “more than 200 mg/dL”. The “fasting blood glucose by six weeks” value [6] was 221 mg/dL, the “glucose excursion during an oral glucose tolerance test after 40 days of dosing” value [7] was “effective in lowering the glucose excursion” and the “increase of HbA1C during the six-week period” value [8] was 109%. The “insulin levels in OGTT six days after dosing” value [9] was “significantly increased”, the “blood glucose levels in OGTT six days after dosing” value ([9]; 2.0 mg/g glucose) was “significantly reduced” and the “insulin staining in pancreata relative to control animals” value [10] was “significantly more insulin staining”. For the same molecule, the “time in which 50% of the gastric contents were emptied” value [11] was 59.23 ± 14.46 min, the “glucose areas under the curve between t=0 and t=180” value ([12]; all doses) was “significant lowering” and the “fasting blood glucose values at t=0 and all subsequent time points” value ([12]; subcutaneous 0.02, 0.2, or 2 mg/kg, six hours before 1.5 mg/g glucose) was “dose dependent decrease”. The “amount of insulin released at t=10 minutes” value ([13]; 0.02 mg/kg or 0.1 mg/kg) was “dose dependent increase” and the “blood glucose levels over the full time course of IPGTT” value ([13]; 0.02 mg/kg or 0.1 mg/kg six hours prior, 1 mg/g D-glucose) was “significant lower”.
With `CN=C(N)NC(=O)Nc1c(C)cccc1C` [lidamidine, reference compound] the “time in which 50% of the gastric contents were emptied” value [11] was 30.60 ± 6.47 min.
In the case of “GLP-1: Glucagon like peptide-1 given as six-week infusion in the clinic (HAEGTFTSDVSSYLEGQAAKEFIAWLVKGRG)”, the “fasting and 8-hour mean plasma glucose levels” value ([14]; six-week infusion) is given as “lowered” and the β-cell function [14] is given as “improvement in β-cell function”.
In the case of GLP-1 (7-36) amide: GLP-1 (7-36) amide, the time action [15] is given as “about 50 minutes”.
In the case of “exendin-4 peptide: exendin-4 peptide, comparator in insulin secretion assay”, the “insulin secretion in RINm cells” value [16] is reported as “stimulates insulin release”.
